# Measured values: patent US20190330529A1, “USE AND COMPOSITION OF BUFFER FORMULATION WITH MULTIPLE PH VALUES AND UREASE ACTIVITY INHIBITOR” (ECO-GEO BIO-TECHNOLOGY COMPANY LIMITED, priority 2018, published 2019)
# Assays:
# [1] = target: T1, urease (U7752, Sigma-Aldrich) (Canavalia ensiformis, UniProt P07374); assay: Inhibition of the activity of the urease in citric acid salt buffer solution (Berthelot, absorbance 625 nm); assay type: biochemical
# T1 construct: purchased Sigma-Aldrich U7752
# Description: (§1) 7.1 Control group: Control group: 20 μL of the buffer solution and 25 μL of 50 ppm urease were added and mixed in wells of a 96-well plate. After the mixture reacted at 37° C. for 5 minutes, 40 μL of 20 mM urea solution was added into the mixture. After the mixture reacted at 37° C. for 10 minutes, 55 μL of Berthelot reagent A and 60 μL of Berthelot reagent B were added into each well. The mixture was held in the dark at 37° C. for 30 minutes, and the absorbance was measured at 625 nm wavelength by the ELISA reader. Each sample was measured at least in triplicate.
# as §1, with “7.2 Ascorbic acid groups: 10” for “7.1 Control group: Control group: 20”, “buffer solution, 10 μL of ascorbic acid” for “buffer”, “mixture to make the final concentrations of the ascorbic acid as 120 ppm, 240 ppm and 480 ppm, respectively.” for “mixture.”, “triplicate. The inhibition % of the activity of the urease=100−((the absorbance of the sample/the absorbance of the control group)×100).” for “triplicate.”
# 8.1 Control group: Control group: 20 μL of the buffer solution and 25 μL of 50 ppm urease were added and mixed in wells of a 96-well plate. After the mixture reacted at 37° C. for 5 minutes, 40 μL of 20 mM urea solution was added into the mixture. After the mixture reacted at 37° C. for 10 minutes, 55 μL of Berthelot reagent A and 60 μL of Berthelot reagent B were added into each well. The mixture was held in the dark at 37° C. for 30 minutes, and the absorbance was measured at 625 nm wavelength by the ELISA reader. Each sample was measured at least in triplicate.
# as §1, with “8.2 Ascorbic acid groups: 10” for “7.1 Control group: Control group: 20”, “buffer solution, 10 μL of ascorbic acid” for “buffer”, “mixture to make the final concentrations of the ascorbic acid as 120 ppm, 240 ppm and 480 ppm, respectively.” for “mixture.”, “triplicate. The inhibition % of the activity of the urease=100−((the absorbance of the sample/the absorbance of the control group)×100).” for “triplicate.”
# 9.1 Control group: Control group: 20 μL of the buffer solution and 25 μL of 50 ppm urease were added and mixed in wells of a 96-well plate. After the mixture reacted at 37° C. for 5 minutes, 40 μL of 20 mM urea solution was added into the mixture. After the mixture reacted at 37° C. for 10 minutes, 55 μL of Berthelot reagent A and 60 μL of Berthelot reagent B were added into each well. The mixture was held in the dark at 37° C. for 30 minutes, and the absorbance was measured at 625 nm wavelength by the ELISA reader. Each sample was measured at least in triplicate.
# as §1, with “9.2 Ascorbic acid groups: 10” for “7.1 Control group: Control group: 20”, “buffer solution, 10 μL of ascorbic acid” for “buffer”, “mixture to make the final concentrations of the ascorbic acid as 120 ppm, 240 ppm and 480 ppm, respectively.” for “mixture.”, “Each sample was measured at least in triplicate.” left out
# [2] = target: T1, urease (U7752, Sigma-Aldrich); assay: Inhibition of the activity of the urease in phosphate buffer solution (Berthelot, absorbance 625 nm); assay type: biochemical
# Description: 1. Experiment of the Inhibition of the Activity of the Urease (in Phosphate Buffer Solution, pH 5.0)
# 1.1 Control group: 20 μL of the buffer solution and 25 μL of 50 ppm urease (U7752, Sigma-Aldrich) were added and mixed in wells of a 96-well plate. After the mixture reacted at 37° C. for 5 minutes, 40 μL of 20 mM urea solution was added into the mixture. After the mixture reacted at 37° C. for 10 minutes, 55 μL of Berthelot reagent A (prepared by mixing 5 g of phenol and 25 mg of sodium nitroprusside and diluting the mixture to 500 mL with purified water) and 60 μL of Berthelot reagent B (prepared by mixing 2.5 g of sodium hydroxide and 4.2 mL of sodium hypochlorite and diluting the mixture to 500 mL with purified water) were added into each well. The mixture was held in the dark at 37° C. for 30 minutes, and the absorbance was measured at 625 nm wavelength by an enzyme-linked immuno-sorbent assay (ELISA) reader. Each sample was measured at least in triplicate.
# as §1, with “1.2 Ascorbic acid groups: 10” for “7.1 Control group: Control group: 20”, “buffer solution, 10 μL of ascorbic acid” for “buffer”, “mixture to make the final concentrations of the ascorbic acid as 120 ppm, 240 ppm and 480 ppm, respectively.” for “mixture.”, “triplicate. The inhibition % of the activity of the urease=100−((the absorbance of the sample/the absorbance of the control group)×100).” for “triplicate.”
# 2. Experiment of the Inhibition of the Activity of the Urease (in Phosphate Buffer Solution, pH 6.0)
# 2.1 Control group: 20 μL of the buffer solution and 25 μL of 50 ppm urease were added and mixed in wells of a 96-well plate. After the mixture reacted at 37° C. for 5 minutes, 40 μL of 20 mM urea solution was added into the mixture. After the mixture reacted at 37° C. for 10 minutes, 55 μL of Berthelot reagent A and 60 μL of Berthelot reagent B were added into each well. The mixture was held in the dark at 37° C. for 30 minutes, and the absorbance was measured at 625 nm wavelength by the ELISA reader. Each sample was measured at least in triplicate.
# as §1, with “2.2 Ascorbic acid groups: 10” for “7.1 Control group: Control group: 20”, “buffer solution, 10 μL of ascorbic acid” for “buffer”, “mixture to make the final concentrations of the ascorbic acid as 120 ppm, 240 ppm and 480 ppm, respectively.” for “mixture.”, “triplicate. The inhibition % of the activity of the urease=100−((the absorbance of the sample/the absorbance of the control group)×100).” for “triplicate.”
# 3. Experiment of the Inhibition of the Activity of the Urease (in Phosphate Buffer Solution, pH 6.8)
# 3.1 Control group: 20 μL of the buffer solution and 25 μL of 50 ppm urease were added and mixed in wells of a 96-well plate. After the mixture reacted at 37° C. for 5 minutes, 40 μL of 20 mM urea solution was added into the mixture. After the mixture reacted at 37° C. for 10 minutes, 55 μL of Berthelot reagent A and 60 μL of Berthelot reagent B were added into each well. The mixture was held in the dark at 37° C. for 30 minutes, and the absorbance was measured at 625 nm wavelength by the ELISA reader. Each sample was measured at least in triplicate. […]
# [3] = pH 5, read-out: inhibition % of the activity of the urease
# [4] = pH 6, read-out: inhibition % of the activity of the urease
# [5] = pH 6.8, read-out: inhibition % of the activity of the urease
# [6] = pH 7, read-out: inhibition % of the activity of the urease
# [7] = pH 7.3, read-out: inhibition % of the activity of the urease
# [8] = pH 8, read-out: inhibition % of the activity of the urease
# T1 sequence (P07374 whole entry, looked up): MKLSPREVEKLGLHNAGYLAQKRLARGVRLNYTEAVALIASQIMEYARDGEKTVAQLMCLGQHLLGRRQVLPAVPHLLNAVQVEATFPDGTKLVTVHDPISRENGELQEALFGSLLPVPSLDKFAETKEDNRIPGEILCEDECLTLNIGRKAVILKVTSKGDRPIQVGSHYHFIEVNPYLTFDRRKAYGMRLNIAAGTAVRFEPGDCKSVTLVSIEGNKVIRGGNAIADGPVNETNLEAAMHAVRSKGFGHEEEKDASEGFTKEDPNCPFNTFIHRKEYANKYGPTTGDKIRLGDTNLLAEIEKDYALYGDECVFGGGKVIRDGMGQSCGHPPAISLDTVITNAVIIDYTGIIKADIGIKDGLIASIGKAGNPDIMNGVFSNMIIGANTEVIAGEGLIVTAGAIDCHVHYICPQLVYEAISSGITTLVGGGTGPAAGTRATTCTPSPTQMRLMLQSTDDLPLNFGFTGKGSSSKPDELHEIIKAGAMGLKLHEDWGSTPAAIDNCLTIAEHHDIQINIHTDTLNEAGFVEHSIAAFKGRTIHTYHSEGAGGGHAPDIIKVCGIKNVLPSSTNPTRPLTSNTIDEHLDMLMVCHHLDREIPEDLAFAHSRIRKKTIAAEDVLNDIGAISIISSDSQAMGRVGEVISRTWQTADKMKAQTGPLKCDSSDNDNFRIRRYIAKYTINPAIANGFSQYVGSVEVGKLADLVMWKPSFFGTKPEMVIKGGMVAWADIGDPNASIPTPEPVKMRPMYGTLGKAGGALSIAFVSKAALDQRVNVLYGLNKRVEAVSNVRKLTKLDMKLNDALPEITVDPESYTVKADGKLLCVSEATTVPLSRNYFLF
smiles,measurement,setting,value
O=C1O[C@H]([C@@H](O)CO)C(O)=C1O [ascorbic acid],inhibition at 120 ppm,"[1]; pH 6.8, read-out: inhibition % of the activity of the urease, 120 ppm ascorbic acid, citrate buffer solution, pH 6.8",-6.8%
same,inhibition at 240 ppm,"[1]; pH 6.8, read-out: inhibition % of the activity of the urease, 240 ppm ascorbic acid, citrate buffer solution, pH 6.8",66%
same,inhibition at 480 ppm,"[1]; pH 6.8, read-out: inhibition % of the activity of the urease, 480 ppm ascorbic acid, citrate buffer solution, pH 6.8",93.5%
same,inhibition at 480 ppm,"[1]; pH 6.8, read-out: inhibition of the urea hydrolysis, 480 ppm ascorbic acid, citrate buffer solution, pH 6.8-7.0",> 90%
same,inhibition at 480 ppm,"[1]; pH 6.8, read-out: inhibition of the urea hydrolysis, 480 ppm ascorbic acid, citrate buffer solution, pH 6.8-7.3",> 50%
same,inhibition at 120 ppm,"[1]; pH 7, read-out: inhibition % of the activity of the urease, 120 ppm ascorbic acid, citrate buffer solution, pH 7.0",-25.2%
same,inhibition at 240 ppm,"[1]; pH 7, read-out: inhibition % of the activity of the urease, 240 ppm ascorbic acid, citrate buffer solution, pH 7.0",32.6%
same,inhibition at 480 ppm,"[1]; pH 7, read-out: inhibition % of the activity of the urease, 480 ppm ascorbic acid, citrate buffer solution, pH 7.0",93.6%
same,inhibition at 120 ppm,"[1]; pH 7.3, read-out: inhibition % of the activity of the urease, 120 ppm ascorbic acid, citrate buffer solution, pH 7.3",-19.7%
same,inhibition at 240 ppm,"[1]; pH 7.3, read-out: inhibition % of the activity of the urease, 240 ppm ascorbic acid, citrate buffer solution, pH 7.3",27.1%
same,inhibition at 480 ppm,"[1]; pH 7.3, read-out: inhibition % of the activity of the urease, 480 ppm ascorbic acid, citrate buffer solution, pH 7.3",75.3%
same,inhibitory effect on the urease hydrolysis (in words),"[2]; environment with pH 5-8, optical density versus control group",has the inhibitory effect on the urease hydrolysis
same,inhibitory effect on the urease hydrolysis,"[2]; environment with pH 6.8-7.3, summary statement, buffer and concentration not stated",over 90%
same,inhibition at 120 ppm,[2]; [3],25.7%
same,inhibition at 240 ppm,[2]; [3],33.1%
same,inhibition at 480 ppm,[2]; [3],40.5%
same,inhibition at 120 ppm,[2]; [4],26.7%
same,inhibition at 240 ppm,[2]; [4],49%
same,inhibition at 480 ppm,[2]; [4],52.9%
same,inhibition at 480 ppm,"[2]; pH 6, read-out: inhibition of the urea hydrolysis",> 50%
same,inhibition at 120 ppm,[2]; [5],2%
same,inhibition at 240 ppm,[2]; [5],37.3%
same,inhibition at 480 ppm,[2]; [5],96.5%
same,inhibition at 480 ppm,"[2]; pH 6.8, read-out: inhibition of the urea hydrolysis",> 93%
same,inhibition at 120 ppm,[2]; [6],16.1%
same,inhibition at 240 ppm,[2]; [6],59.4%
same,inhibition at 480 ppm,[2]; [6],97.2%
same,inhibition at 120 ppm,[2]; [7],11.3%
same,inhibition at 240 ppm,[2]; [7],34.6%
same,inhibition at 480 ppm,[2]; [7],93.6%
same,inhibition at 120 ppm,[2]; [8],8.1%
same,inhibition at 240 ppm,[2]; [8],33.3%
same,inhibition at 480 ppm,[2]; [8],77.7%
